Data taken from US7785583B2, “In situ maturation of dendritic cells” (Argos Therapeutics, Inc., priority 2002, dated 2010).

Legend:
[1] = test system: immature DC injected into the ear pinna; test: Migration of CFSE-labelled injected DC to the draining auricular lymph node (flow cytometry); type: in vivo, mice (C57BL/6); details: interval between adjuvant application and DC injection extended to 4 hours; determined as in FIG. 3
Experimental: FIG. 3 depicts flow cytometry analysis of the migration of DC to the draining lymph nodes. Immature or mature DC were transfected with OVA mRNA and incubated with CFSE. Cells were washed and 3×10^5 DC were injected into the ear pinna. […] United States of America). Twenty-four hours post […] of the DC, the draining auricular lymph node was dissected, a cell suspension generated, and cells were analyzed by flow cytometry. To identify the DC subset, cells gated for CD11c^+ granular cells (upper panels) were analyzed for class II expression and CFSE content (lower panels). Injected DC are class II^high CFSE^+ (UR quadroon) whereas the class II^highCFSE^− represent the resident and newly arrived, endogenous, DC (UL quadroon). The percentages shown in the UR quadroons constitute the percentage of CFSE^+ DC injected into the ear found in the lymph node.
Marrow from tibias and femurs of C57BL/6 mice were harvested followed by treatment of the precursors with ammonium chloride Tris buffer for 3 min at 37° C. to deplete the red blood cells. The precursors were plated in RPMI-5% FCS with GM-CSF (15 ng/ml) and IL-4 (10 ng/ml). GM-CSF-containing supernatant was harvested after 24 h capillary culture from GM-CSF producing melanoma cell line (F10.9/GM-CSF) and IL-4 was obtained from Peprotech (Rocky Hill, N.J., United States of America). The concentration of GM-CSF used was determined by ELISA. […]

[2] = test system: OVA-expressing EL-4 cells; test: Induction of OVA-specific CTL in mice immunized with OVA mRNA transfected DC (standard cytotoxicity assay); type: in vivo, mice (C57BL/6)
Experimental: FIG. 4 is a graph depicting the induction of OVA CTL in mice immunized with OVA mRNA transfected DC. Mice were immunized as described in FIG. 3 except that DC were not stained with CFSE. Splenocytes were harvested after 8 days and either analyzed directly for CTL (left panel) or incubated for 5 days in the presence of OVA mRNA transfected DC (right panel). CTL activity was determined using a standard cytotoxicity assay and OVA-expressing EL-4 cells, and EL-4 cells as targets. (iDC: immature DC; mDC: mature DC; solid gray square: iDC and OVA-expressing EL-4 cells; solid black oval: […] adjuvant and OVA-expressing EL-4 cells; solid black square: mDC and OVA-expressing EL-4 cells; open gray square: iDC and EL4 cells; open black oval: […] adjuvant and EL4 cells; open black square: mDC and EL4 cells). FIG. 5 is a graph depicting the induction of OVA specific CTL with immature DC during in situ maturation with Imiquimod (sold under the trademark […] by 3M of St. Paul, Minn., United States of America) and poly arginine. Experimental details are as described for FIG. 4. Here, in addition to […] adjuvant, Imiquimod ([…] brand) and poly arginine (poly-arg) were used to induce local “inflammation” prior to immunization with the OVA mRNA transfected immature DC. The […] clinically approved cream formulation of Imiquimod was applied to the ear surface 15 minutes prior to DC injection. Poly-arg was injected into the ear pinna (50 μl; 100 μg/ml) 15 minutes prior to DC injection. (open square: iDC; solid circle: […] adjuvant; solid triangle: […] adjuvant; open triangle: iDC+poly-arginine; solid square: mDC). FIG. 6 is a graph depicting the induction of OVA specific CTL with immature DC during in situ maturation with Imiquimod ([…] brand). […] Antigen loaded immature or mature DC were injected into the ear pinna and mice were evaluated for (a) migration of the DC to the draining auricular lymph node or (b) induction of OVA CTL. […] See […], Mohr H., “A fluorescence-based assay for quantitation of lymphokine-activated killer cell activity”, J Immunol Methods (1989) 119:45-51.

[3] = FIG. 5, injection site pretreated 15 minutes prior to injection of OVA mRNA transfected immature DC

Row | Compound | migration, % of the injected DC [1] | CTL response (OVA-specific CTL) [2, 3] | CTL response (OVA-specific CTL) ([2]; FIG. 6, Imiquimod (ALDARA brand) applied 4 hours before injection of OVA mRNA transfected immature DC)
1 | CC(C)Cn1cnc2c(N)nc3ccccc3c21 [Imiquimod] | 9.2% | almost as effective as ADJUPRIME™ adjuvant | more potent CTL response than the ex vivo matured DC
2 | poly arginine [poly-arg] | – | the effect of poly-arg is small | –
